Literature values as cited in US20180271820A1, “METHODS OF TREATING HEART FAILURE” (priority 2015, published 2018).
Counter-ions that a name gives are not always drawn.

Columns and labels:
[1] = system: patients with preserved EF; conditions: GISSI-HF, rosuvastatin or placebo; cited from earlier work
[2] = cited from earlier work
[3] = system: patients; conditions: 120 mg, 240 mg, daily, BID, and TID; cited from earlier work
[4] = system: Ehrlich ascites tumor; conditions: mice; cited from earlier work
[5] = system: HFPEF patients; conditions: RELAX trial; cited from earlier work
[6] = system: patients with symptomatic heart failure and a preserved ejection fraction; conditions: 3,445 patients, TOPCAT trial; cited from earlier work

Question: Which “benefit in subgroup of patients with preserved EF” value [1] does the source give for `CC(C)c1nc(N(C)S(C)(=O)=O)nc(-c2ccc(F)cc2)c1/C=C/[C@@H](O)C[C@@H](O)CC(=O)O` [rosuvastatin] here?
Answer: The value was “no benefit”.

Question: With `COC(=O)/C=C/C(=O)OC` [DMF, dimethyl fumarate] as the compound, how does the aqueous solubility [2] read?
Answer: Its aqueous solubility is “poor”.

Question: And the “side effect profile across dosages” value [3]?
Answer: Its value is “similar”.

Question: For `O=C(O)/C=C/C(=O)O` [Fumaric acid], which “growth of the Ehrlich ascites tumor” value [4] is on record?
Answer: The value was “inhibits the growth”.

Question: Which “primary outcome of functional capacity” value [5] does the source give for `CCCc1nn(C)c2c(=O)[nH]c(-c3cc(S(=O)(=O)N4CCN(C)CC4)ccc3OCC)nc12` [sildenafil] here?
Answer: Its value is “did not impact”.

Question: With `CC(=O)S[C@@H]1CC2=CC(=O)CC[C@]2(C)[C@H]2CC[C@@]3(C)[C@@H](CC[C@@]34CCC(=O)O4)[C@H]12` [spironolactone] as the compound, how does the “incidence of primary composite outcome of death from cardiovascular causes, cardiac arrest, or hospitalization for heart failure” value [6] read?
Answer: The value was “did not significantly reduce”.
